# What was measured:
# Experiment in all cases: relative viability (nuclei count vs DMSO), 5 days (fraction); higher = more cells survive
# [1] = compound: C1CNCCC1C2=CC(=NN2)C3=CC=NC=C3 + CC(=O)c1c(C)c2cnc(Nc3ccc(N4CCNCC4)cn3)nc2n(C2CCCC2)c1=O [Palbociclib] (partner 0.5 µM)
# Summary of the method: (§1)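 A single step with final 0.05% Triton X-100, 1% formaldehyde and 1 ug/ml Hoechst fixed the cells and stained nuclei 5 days after treatment. Lung cancer cell lines in 1536-well plates had been treated by pin tool the day after seeding with one drug alone or a fixed anchor-drug dose plus five library-drug doses (not always all listed) in √10 steps, and nuclei were counted on 4× images. Relative viability is the ratio of nuclei in treated wells to nuclei in vehicle wells, taken as the median of duplicate plates.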
# [2] = compound: C[C@@H](N)c1ccc(C(=O)Nc2ccnc3[nH]ccc23)cc1 + N=C(N)NC(=N)NCCc1ccccc1 [Phenformin] (partner 250 µM)
# Summary of the method: as §1
# [3] = compound: C[C@@H](N)c1ccc(C(=O)Nc2ccnc3[nH]ccc23)cc1 + O=C(c1cc(Cc2n[nH]c(=O)c3ccccc23)ccc1F)N1CCN(C(=O)C2CC2)CC1 [Olaparib] (partner 8 µM)
# Summary of the method: as §1
# Tanzisertib + Phenformin = compound: O[C@H]1CC[C@H](Nc2ncc3nc(Nc4c(F)cc(F)cc4F)n([C@H]4CCOC4)c3n2)CC1 [Tanzisertib] + N=C(N)NC(=N)NCCc1ccccc1 [Phenformin] (partner 250 µM)
# Summary of the method: as §1
Cell Line,relative viability ([1]; first compound 0.08 µM),relative viability ([1]; first compound 0.8 µM),relative viability ([1]; first compound 2.53 µM),relative viability ([1]; first compound 8 µM),relative viability ([2]; first compound 0.04 µM),relative viability ([2]; first compound 0.1265 µM),relative viability ([2]; first compound 0.4 µM),relative viability ([2]; first compound 1.265 µM),relative viability ([2]; first compound 4 µM),relative viability ([3]; first compound 0.04 µM),relative viability ([3]; first compound 0.1265 µM),relative viability ([3]; first compound 0.4 µM),relative viability ([3]; first compound 1.265 µM),relative viability ([3]; first compound 4 µM),relative viability (Tanzisertib + Phenformin; first compound 0.08 µM),relative viability (Tanzisertib + Phenformin; first compound 0.253 µM),relative viability (Tanzisertib + Phenformin; first compound 0.8 µM),relative viability (Tanzisertib + Phenformin; first compound 2.53 µM),relative viability (Tanzisertib + Phenformin; first compound 8 µM)
NCI-H838,0.225,0.194,0.249,0.247,0.378,0.527,0.501,0.247,0.221,0.789,0.826,0.658,0.397,0.283,0.666,0.608,0.628,0.587,0.541
NCI-H661,0.416,0.394,0.394,0.417,0.222,0.274,0.247,0.224,0.244,0.734,0.722,0.895,0.706,0.597,0.32,0.256,0.24,0.285,0.284
NCI-H1734,0.303,0.34,0.309,0.345,0.355,0.383,0.431,0.282,0.397,0.642,0.591,0.652,0.559,0.45,0.469,0.406,0.356,0.387,0.334
NCI-H1650,0.365,0.315,0.379,0.343,0.434,0.463,0.345,0.331,0.421,0.81,0.943,0.812,0.822,0.763,0.317,0.425,0.407,0.307,0.314
NCI-H1944,0.267,0.326,0.353,0.359,0.157,0.216,0.153,0.165,0.138,0.453,0.396,0.434,0.432,0.401,0.23,0.197,0.21,0.198,0.203
LK-2,,0.658,0.801,0.735,0.325,,0.744,,0.636,0.732,0.658,0.746,0.482,0.864,0.77,0.517,0.559,0.548,0.228
HCC-15,0.734,0.849,0.79,0.699,0.447,0.465,0.437,,0.424,0.744,0.731,0.726,0.693,0.743,0.576,0.487,0.509,0.467,0.423
NCI-H727,0.627,0.685,0.66,0.646,0.583,0.653,0.669,0.748,0.756,0.64,0.738,0.8,0.771,0.742,0.581,0.504,0.458,0.497,0.465
HOP-62,0.34,0.489,0.463,0.468,0.607,0.609,0.636,0.552,0.607,0.43,0.381,0.419,,0.47,0.758,0.709,0.671,0.671,0.729
NCI-H3122,0.152,0.185,0.181,0.178,0.352,0.413,0.39,,0.377,0.625,0.613,0.638,0.702,0.622,0.398,0.423,0.378,0.426,0.314
NCI-H1395,0.652,0.587,0.644,0.613,0.433,0.497,0.436,0.36,0.453,0.473,0.511,0.406,,0.393,0.481,0.454,0.427,0.456,0.396
NCI-H647,0.354,0.387,0.49,0.458,0.443,0.488,0.516,0.476,0.51,0.668,0.615,0.602,0.478,0.474,0.531,0.703,0.481,0.487,0.555
NCI-H650,0.334,0.352,0.4,0.406,,0.424,0.46,0.203,0.411,,0.385,0.433,,0.325,0.472,0.476,0.461,0.526,0.327
EKVX,0.38,,0.412,0.395,0.228,0.245,0.241,0.124,0.222,0.993,1.14,1.03,0.923,0.727,0.227,0.244,0.253,0.227,0.205
NCI-H460,0.105,0.179,0.315,0.303,0.509,0.522,0.558,0.535,0.495,0.342,0.429,0.521,0.579,0.571,0.572,0.522,0.489,0.54,0.523
NCI-H2342,0.486,0.545,0.587,0.556,0.718,0.731,0.676,0.718,0.622,0.454,0.469,0.405,0.481,0.388,0.618,0.643,0.57,0.557,0.532
LCLC-97TM1,0.206,0.295,0.251,0.194,0.418,0.458,0.521,0.365,0.427,0.416,0.429,0.342,0.526,0.342,0.471,0.425,0.38,0.476,0.524
COR-L23,0.307,0.278,0.29,0.291,0.44,0.526,0.442,0.28,0.277,0.296,0.341,0.322,0.277,0.176,0.479,0.489,0.432,0.483,0.475

Cell Line,relative viability ([1]; first compound 0.08 µM),relative viability ([1]; first compound 0.8 µM),relative viability ([1]; first compound 2.53 µM),relative viability ([1]; first compound 8 µM),relative viability ([2]; first compound 0.04 µM),relative viability ([2]; first compound 0.1265 µM),relative viability ([2]; first compound 0.4 µM),relative viability ([2]; first compound 1.265 µM),relative viability ([2]; first compound 4 µM),relative viability ([3]; first compound 0.04 µM),relative viability ([3]; first compound 0.1265 µM),relative viability ([3]; first compound 0.4 µM),relative viability ([3]; first compound 1.265 µM),relative viability ([3]; first compound 4 µM),relative viability (Tanzisertib + Phenformin; first compound 0.08 µM),relative viability (Tanzisertib + Phenformin; first compound 0.253 µM),relative viability (Tanzisertib + Phenformin; first compound 0.8 µM),relative viability (Tanzisertib + Phenformin; first compound 2.53 µM),relative viability (Tanzisertib + Phenformin; first compound 8 µM)
NCI-H1355,0.387,0.324,0.421,0.38,0.393,0.469,0.498,0.436,0.388,0.723,0.75,0.877,0.709,0.696,0.517,0.44,0.503,0.472,0.431
NCI-H1666,0.657,0.662,0.667,0.669,0.534,0.603,0.651,0.631,0.561,0.786,0.764,0.856,0.825,0.906,0.595,0.602,0.56,0.607,0.59
EPLC-272H,0.343,0.359,0.326,0.334,0.365,0.44,0.279,0.198,0.241,0.729,1.17,0.808,0.703,0.394,0.329,0.311,0.295,0.327,0.302
ChaGo-K-1,0.928,0.939,0.943,0.923,0.495,0.493,0.46,0.346,0.507,0.418,0.426,0.414,0.438,0.345,0.547,0.545,0.447,0.493,0.482
NCI-H1651,0.456,0.493,0.521,0.525,0.426,0.315,0.312,0.372,0.301,0.195,0.174,0.179,0.24,0.221,0.327,0.371,0.305,0.322,0.332
HCC-44,0.994,0.997,1,0.97,0.138,0.172,0.285,0.1,0.218,0.949,0.966,0.966,1.05,0.889,0.171,0.297,0.269,0.306,0.0849
SW 1573,,0.471,0.405,0.411,0.363,0.487,0.368,0.363,0.284,0.534,0.531,0.446,0.44,0.361,0.457,0.305,0.347,0.417,0.356
PC-3 [JPC-3],0.547,0.495,0.558,0.541,0.473,0.495,0.477,0.474,0.456,0.968,1.22,1.13,1.23,1.01,0.488,0.492,0.509,0.494,0.461
LOU-NH91,0.539,0.539,0.545,0.589,0.589,0.628,0.672,0.28,0.646,0.824,0.911,0.875,0.74,0.593,0.731,0.763,0.746,0.73,0.439
PC-14,0.531,0.585,0.613,0.468,0.409,0.653,0.555,0.348,0.519,0.281,0.233,0.263,0.29,0.271,0.471,0.746,0.671,0.599,0.115
NCI-H2087,0.18,0.22,0.196,0.276,0.497,0.571,0.554,,0.557,0.733,0.598,0.605,0.625,0.576,0.464,0.502,0.463,0.447,0.322
LU99A,0.405,0.389,0.435,0.391,,0.924,0.768,0.605,0.635,,0.231,0.253,0.275,0.281,0.971,0.82,0.884,0.813,0.786
BEN,0.447,0.47,0.45,0.433,0.279,0.265,0.258,0.267,0.248,1.04,1.08,1.11,1.27,0.542,0.254,0.235,0.275,0.266,0.255
SK-LU-1,0.418,0.348,0.43,0.397,0.433,0.611,0.488,0.365,0.405,0.459,0.446,0.436,0.321,0.376,0.694,0.542,0.566,0.509,0.561
NCI-H1975,0.629,0.342,0.668,0.645,0.359,0.405,0.39,0.347,0.255,0.771,0.757,0.78,0.67,0.523,0.419,0.404,0.409,0.424,0.441
NCI-H522,0.949,1.1,0.945,1.02,0.69,0.549,0.668,0.591,0.402,0.591,0.684,0.657,0.658,0.629,0.783,0.57,0.667,0.677,0.572
RERF-LC-KJ,0.989,1.14,1.11,1.06,0.417,0.435,0.446,0.434,0.425,0.879,0.906,0.894,0.934,0.86,0.45,0.39,0.439,0.4,0.384

# — the supplement of paper PMC10307832
